Source: patent US20070128217A1 (priority 2003, published 2007)

Assays:
[1] = tested on: control sera (pooled serum of ten healthy LUMC hospital workers; commercial negative donor pooled serum from the Dutch bloodbank); type: binding, human; parameters: Binding of Control serum LUMC to linear peptides / Binding of Control serum Blood-bank to linear peptides / Binding of Control serum LUMC to looped peptides / Binding of Control Serum Blood-Bank to Looped peptides / Binding of Control serum LUMC to linear peptides of the protein M of SARS-CoV Urbani / Binding of Control serum Blood-bank to linear peptides of the protein M of SARS-CoV Urbani / Binding of Control serum LUMC to looped peptides of the protein M of SARS-CoV Urbani / Binding of Control Serum Blood-Bank to Looped peptides of the protein M of SARS-CoV Urbani: unit not given here
[2] = tested on: recombinant human anti-SARS-CoV antibody 03-018; type: binding; parameters: Binding of antibody 03-018 to linear peptides of the N protein of SARS-CoV Urbani / Binding of antibody 03-018 to looped/cyclic peptides of the N protein of SARS-CoV Urbani: unit not given here
[3] = tested on: antibodies in sera from SARS patients (sera 1a, 1b, 2, 6, 37, 62, London, SARS-yellow, SARS-green); type: binding, human; parameters: Binding of serum 6 to linear peptides of protein X1 of SARS-CoV Urbani / Binding of serum 37 to linear peptides of protein X1 of SARS-CoV Urbani / Binding of serum 6 to looped/cyclic peptide (PEPSCAN-ELISA) / Binding of serum 37 to looped/cyclic peptide (PEPSCAN-ELISA) / Binding of serum 37 to looped/cyclic peptides of protein X1 of SARS-CoV Urbani / Binding of serum 6 to linear peptides of protein X2 / Binding of serum 37 to linear peptides of protein X2 / Binding of serum 37 to looped/cyclic peptides of protein X2 of SARS-CoV Urbani / Binding of serum 6 to linear peptides of protein M of SARS-CoV Urbani / Binding of serum 37 to linear peptides of protein M of SARS-CoV Urbani / Binding of serum 6 to looped/cyclic peptides of protein M of SARS-CoV Urbani / Binding of serum 37 to looped/cyclic peptides of protein M of SARS-CoV Urbani / Binding of serum 6 to linear peptides of protein X3 of SARS-CoV Urbani / Binding of serum 37 to linear peptides of protein X3 of SARS-CoV Urbani / Binding of serum 37 to looped/cyclic peptides of protein X3 of SARS-CoV Urbani / Binding of serum 6 to linear peptides of protein X4 of SARS-CoV Urbani / Binding of serum 37 to linear peptides of protein X4 of SARS-CoV Urbani / Binding of serum 37 to looped/cyclic peptides of protein X4 of SARS-CoV Urbani / Binding of serum 6 to linear peptides of protein X5 of SARS-CoV Urbani / Binding of serum 37 to linear peptides of protein X5 of SARS-CoV Urbani / Binding of serum 37 to looped/cyclic peptides of protein X5 of SARS-CoV Urbani / Binding of serum 6 to linear peptides of protein N of SARS-CoV Urbani / Binding of serum 37 to linear peptides of protein N of SARS-CoV Urbani / Binding of serum 6 to linear peptide (PEPSCAN-ELISA) / Binding of serum 1a to looped/cyclic peptides of protein N of SARS-CoV Urbani / Binding of serum 1b to looped/cyclic peptides of protein N of SARS-CoV Urbani / Binding of serum 2 to looped/cyclic peptides of protein N of SARS-CoV Urbani / Binding of serum 6 to looped/cyclic peptides of protein N of SARS-CoV Urbani / Binding of serum 37 to looped/cyclic peptides of protein N of SARS-CoV Urbani / Binding of serum 62 to looped/cyclic peptides of protein N of SARS-CoV Urbani / Binding of serum London to looped/cyclic peptides of protein N of SARS-CoV Urbani / Binding of serum SARS-green to looped/cyclic peptides of protein N of SARS-CoV Urbani: unit not given here
[4] = tested on: rabbit serum obtained by immunizing a rabbit with the SARS-CoV strain Frankfurt 1; type: binding; parameters: Binding of a rabbit serum to linear peptides / Binding of a rabbit serum to looped peptides / Rabbit serum linear peptides / Rabbit serum looped peptides / Binding of a rabbit serum to linear peptides of protein N of SARS-CoV Urbani (Rabbit serum linear peptides) / Binding of a rabbit serum to looped/cyclic peptides of protein N of SARS-CoV Urbani (Rabbit serum looped peptides): unit not given here

Row | Sequence | Binding of antibody 03-018 to linear peptides of the N protein of SARS-CoV Urbani [2] | Binding of antibody 03-018 to looped/cyclic peptides of the N protein of SARS-CoV Urbani [2] | Binding of serum 1a to linear peptides of protein N of SARS-CoV Urbani [3] | Binding of serum 1a to looped/cyclic peptides of protein N of SARS-CoV Urbani [3] | Binding of serum 1b to linear peptides of protein N of SARS-CoV Urbani [3] | Binding of serum 1b to looped/cyclic peptides of protein N of SARS-CoV Urbani [3] | Binding of serum 2 to linear peptides of protein N of SARS-CoV Urbani [3] | Binding of serum 2 to looped/cyclic peptides of protein N of SARS-CoV Urbani [3] | Binding of serum 6 to linear peptides of protein N of SARS-CoV Urbani [3] | Binding of serum 6 to looped/cyclic peptides of protein N of SARS-CoV Urbani [3] | Binding of serum 37 to linear peptides of protein N of SARS-CoV Urbani [3] | Binding of serum 37 to looped/cyclic peptides of protein N of SARS-CoV Urbani [3] | Binding of serum 62 to linear peptides of protein N of SARS-CoV Urbani [3] | Binding of serum 62 to looped/cyclic peptides of protein N of SARS-CoV Urbani [3] | Binding of serum London to linear peptides of protein N of SARS-CoV Urbani [3] | Binding of serum London to looped/cyclic peptides of protein N of SARS-CoV Urbani [3] | Binding of serum SARS-green to linear peptides of protein N of SARS-CoV Urbani [3] | Binding of serum SARS-green to looped/cyclic peptides of protein N of SARS-CoV Urbani [3] | Binding of serum SARS-yellow to linear peptides of protein N of SARS-CoV Urbani [3] | Binding of serum SARS-yellow to looped/cyclic peptides of protein N of SARS-CoV Urbani [3] | further results
1 | ANKEGIVWVATEGAL | 0.1 | 0.2 | 0.2 | 0.4 | 0.1 | 0.3 | 0.2 | 0.3 | 0.2 | 0.2 | 0.8 | 0.6 | 0.7 | 0.5 | 0.4 | 0.3 | 0.4 | 0.4 | 0.7 | 0.6 | Binding of Control Serum Blood-Bank to Looped peptides [1]: 0.5; Binding of Control serum Blood-bank to linear peptides [1]: 0.6; Binding of Control serum LUMC to linear peptides [1]: 0.6; Binding of Control serum LUMC to looped peptides [1]: 0.6; Binding of a rabbit serum to linear peptides of protein N of SARS-CoV Urbani (Rabbit serum linear peptides) [4]: 0.1; Binding of a rabbit serum to looped/cyclic peptides of protein N of SARS-CoV Urbani (Rabbit serum looped peptides) [4]: 0.3
2 | ASAFFGMSRIGMEVT | 0.1 | 0.2 | 0.2 | 0.3 | 0.3 | 0.2 | 0.2 | 0.3 | 0.2 | 0.1 | 0.7 | 0.5 | 0.7 | 0.4 | 0.8 | 0.3 | 0.3 | 0.3 | 0.7 | 0.6 | Control Serum Blood-Bank Looped peptides [1]: 0.5; Control serum Blood-bank linear peptides [1]: 0.7; Control serum LUMC linear peptides [1]: 0.7; Control serum LUMC looped peptides [1]: 0.4; Binding of a rabbit serum to linear peptides of protein N of SARS-CoV Urbani (Rabbit serum linear peptides) [4]: 0.1; Binding of a rabbit serum to looped/cyclic peptides of protein N of SARS-CoV Urbani (Rabbit serum looped peptides) [4]: 0.5
3 | ASLPYGANKEGIVWV | 0.1 | 0.3 | 0.2 | 0.4 | 0.1 | 0.3 | 0.2 | 0.7 | 0.1 | 0.3 | 0.6 | 1.0 | 0.5 | 1.0 | 0.4 | 0.6 | 0.1 | 0.8 | 0.5 | 0.3 | Binding of Control Serum Blood-Bank to Looped peptides [1]: 0.9; Binding of Control serum Blood-bank to linear peptides [1]: 0.7; Binding of Control serum LUMC to linear peptides [1]: 0.6; Binding of Control serum LUMC to looped peptides [1]: 0.8; Binding of a rabbit serum to linear peptides of protein N of SARS-CoV Urbani (Rabbit serum linear peptides) [4]: 0.2; Binding of a rabbit serum to looped/cyclic peptides of protein N of SARS-CoV Urbani (Rabbit serum looped peptides) [4]: 0.2
